The values that follow come from patent US6159988A, “Arylcycloalkyl derivatives, their production and their use” (Hoeschst Aktiengesellschaft, priority 1992, dated 2000).

Counter-ions that a name gives are not always drawn.

The test system of data set [1] is isolated guinea pig ileum precontracted with leukotrienes. Briefly: Relaxation of leukotriene induced contraction of isolated guinea pig ileum. It counts as cell-based. Conditions: Cavia porcellus. The protocol: Guinea pigs of either sex weighing 300-350 g were sensitized with a suspension of aluminum hydroxide gel and egg albumin. After 21 days, each animal was exposed to 0.5% egg albumin aerosol in an air tight perspex chamber and only those animals which developed allergic bronchoconstriction were selected for further experiment.
The animals were tested for one week after antigenic exposure and then sacrificed by head blow and cutting carotid arteries. The lung was quickly removed and placed in aerated Tyrode solution kept at 37° C. The lung was cut into uniform strips and each strip was placed in an organ bath containing isolated guinea pig ileum connected to potentiometric recorder through isotonic transducer in the presence of Tyrode solution kept at 37° C. After a stabilizing period of 30 minutes, the reactivity of ileum to histamine was confirmed by challenging it with 100 ng-200 ng/ml of histamine. The perfusion fluid was then replaced by Tyrode solution containing Atropine (10^-7 M), Mepyramine maleate (10^-7 M) and methylsergide (10^-7 M). Three minutes later, lung strip was challenged by egg albumin (25 μg/ml) and release of leukotrienes was monitored in terms of slow contraction of ileum. The ileum was allowed to contract for 10-15 minutes when a plateau was achieved. The test compound (compound 4 of Table 1) was then added to observe the relaxation.
(§1) The specificity of leukotriene antagonism was determined by inducing contraction of guinea pig ileum with agonists like histamine, acetylcholine and KC1. Compounds having specific effect against lipoxygenase products induced contraction normally would not show any inhibition of histamine, acetylcholine and KC1 induced contraction.

Data set [2] has as its system histamine induced contraction of guinea pig ileum. Description: Histamine induced contraction of guinea pig ileum (specificity). Conditions: up to 7.11×10^-5 M. Type of data set: cell-based. The protocol: as §1
For data set [3], the system named is KC1 induced contraction of guinea pig ileum. Briefly: KCl induced contraction of guinea pig ileum (specificity). Type of data set: cell-based. The following applies: up to 7.11×10^-5 M. As for the experimental part:
as §1

Data set [4] has as its system Cotton Pellet Granuloma in Rats. Briefly: Inhibition of carrageenin cotton pellet granuloma in rats. It counts as in vivo, rat (Wistar). Conditions: p.o. × 5. As for the experimental part: The implantation of carrageenin impregnated cotton pellets results in production of large, well-defined granuloma which are easily dissected. The potency of the compounds are assessed by measuring the reduction in granuloma tissue formation.
Cotton wool pellets weighing 40 mg were used for sterilization.
Pellets were dried overnight under a lamp. The pellets in the weight range of 42-44 mg were selected.
Rats (in groups of 6, male or female, Charles River, Wistar, weighing 140-150 g) were anaesthetized with ether. The back was shaved and cleaned; swabbed with alcohol and one centimeter incision was made in the lower midback. A small channel was made bilaterally using a blunt forceps and one cotton pellet placed in each channel. Air from the incision was removed and the wound was stitched. […] Three hours after the administration of the last dose on day 7, animals were sacrificed. The pellets were removed by cutting the skin along the dorsal midline and peeling the skin away from the bodywall in both lateral directions. The pellets were weighed and then placed in drying oven at 140° C. overnight. The dry weights were then recorded and the amount of granuloma was assessed by subtracting the original pellet weight from wet weights and dry weights. The data was evaluated using the difference of left and right weights (cf. Table 4).

Data set [5] has as its system microanaphylactic shock of guinea pigs. Description: Inhibition of micro-anaphylactic shock of guinea pigs (egg albumin aerosol). Type of data set: in vivo, guinea pig. The following applies: 20 mg/kg^-1, i.p. + pretreatment with indomethacin, 10 mg/kg.
Excerpt: Guinea pigs of either sex weighing between 300-350 g were sensitized with egg albumin absorbed over Al(OH)3 gel. After 21 days of sensitization, each animal was placed in an air tight perspex chamber and exposed to 0.5% egg albumin aerosol through EEL atomizer. EEL atomizer was operated by connecting it to pressurized air through a water trap and dial type sphygmomanometer at the constant air pressure of 180 mm Hg. The time of onset of asthma in seconds and recovery period in minutes was noted.
Each animal was exposed to egg albumin aerosol at an interval of 15 days to maintain the consistency of the reactivity of animals to the antigen. After 3 such control exposures, animals were subjected to drug treatment. On the day of the experiment one group of Guinea pigs consisting of 10 animals was kept as control exposing them only to 0.5% egg albumin aerosol. […] Fifteen mins. after the administration of the test compound the animals were exposed to 0.5% egg albumin aerosol.
A further data set concerns IL-1 alpha. Briefly: Inhibition of LPS stimulated IL-1 alpha release from human mononuclear cells. The following applies: 18 hours, 37° C., read-out: Approx. IC50 (LPS stimulated IL-1 alpha). Type of data set: cell-based. As for the experimental part: (§2) 10 ml of human blood were carefully drawn from the antecubital vein using a syringe containing 1 ml of a solution of 3.8% sodium citrate. After dilution with 10 ml PM 16 (Serva, Heidelberg, FRG) and underlayering with 15 ml Lymphoprep® (Molter GmbH), the sample was centrifuged at 400×g for 40 min at 20° C. The mononuclear cells forming a white ring between lymphoprep and plasma were carefully aspirated by a syringe, diluted 1:1 with PM 16 and centrifuged again at 400×g for 10 min. […] was washed with 10 ml RPMI 1640 (Gibco, Berlin, FRG), containing additionally 300 mg/l L-glutamine, 25 mmol/l […] HEPES, 100 μg/ml streptomycin and 100 μg/ml penicillin. Finally, using a Coulter counter IT, the cell suspension was adjusted to 5×10^6 cells/ml. The cells consist of approx. 90% lymphocytes and 10% monocytes.
10 μl DMSO/water (1:10, v/v), containing the test compound, was added to 480 μl of a suspension, containing 5×10^6 mononuclear cells. The synthesis of IL-1 was stimulated by the addition of 10 μl DSMO/water (1:10, v/v), containing 0,5 μg LPS (Salmonella abortus equi, Sigma). After incubation at 37° C. for 18 hours, the samples were cooled to 0° C. and centrifuged for 1 min. in a table centrifuge. […]

The next data set has as its system IL-1. Briefly: IL-1 release inhibition (Table 2). It counts as cell-based, human. The following applies: Homo sapiens; 5 μM; read-out: IL-1 Rel. Inhib. The protocol: as §2
10 μl DMSO/water (1:10, v/v), containing the test compound, was added to 480 μl of a suspension, containing 5×10^6 mononuclear cells. The synthesis of IL-1 was stimulated by the addition of 10 μl DSMO/water (1:10, v/v), containing 0,5 μg LPS (Salmonella abortus equi, Sigma). After incubation at 37° C. for 18 hours, the samples were cooled to 0° C. and centrifuged for 1 min. in a table centrifuge. 25 μl aliquots of the supernatant were assayed for IL-1 alpha activity using a commercially available 125-J-IL-1-alpha radioimmunoassay Kit (Amersham/UK), and for IL-1 beta in a similar way using the specific test kit. Control experiments were performed as described without test compound, or with cycloheximide as a test compound.

In data set [6] the test system is adjuvant arthritis in rats. Briefly: Adjuvant-induced arthritis in rats. Type of data set: in vivo, rat (female Wistar). The following applies: 3, 10, and 30 mg/kg orally once a day, 12 days.
The subject of data set [7] is experimental allergic encephalomyelitis (EAE) in guinea pigs. Description: Experimental allergic encephalomyelitis (EAE) in guinea pigs. Type of data set: in vivo, guinea pig. Conditions: 3 mg/kg orally once daily for 10 days. An excerpt: This method permits the evaluation of the potential of the test compound in preventing the development of an autoimmune disorder leading to demyelination in the guinea pigs which can be equated to multiple sclerosis disease in humans. EAE is a reproducible chronic inflammatory autoimmune disease of the central nervous system in which an animal is immunized with either a homologous or heterologous extract of the whole brain and spinal cord, which contains the basic myelin protein together with Freund's Complete Adjuvant (FCA). A pathological condition would set in during ten to twenty days following immunization, which is characterized by weight loss, abnormal gait, mild to severe ataxia, paraparesis and moribund state leading to death. The potential of the test compounds to prevent this autoimmune condition was evaluated by observing the severity of the disease and mortality in comparison with untreated and hydrocortisone (standard drug) treated animals.
Guinea pigs (200-300 g) were randomly distributed into groups of 10 each after receiving 0.075 ml of it brain and spinal cord extract in FCA intradermally on the back and 0.050 ml intrapedally in one hind paw. Compound 9 of Table 2 was administered orally at 3 mg/kg once daily for 10 days. The standard compound was administered 100 mg/kg p.o. once daily for 10 days. The weights of the animals were noted every day. Eight days after the induction of the disease, the animals were rated regularly for the severity of the disease and mortality was monitored.

The nature of data set [8]: Oral bioavailability in the rat. Type of data set: in vivo. The following applies: 10 mg/kg oral (vs 1 mg/kg intravenous), plasma. The protocol:
(§3) Since the test compound produced significant activity in the adjuvant arthritic rats and experimental allergic encephalomyelitic guinea pigs when administered orally, the extent of oral bioavailability of this compound was estimated in rats and dogs. Compound 9 of Table 2 was administered intravenously (1 mg/kg) to conscious rats and dogs and blood samples were collected at various time points after administration. Similarly, the test compound was also administered orally (10 mg/kg) to a different set of rats and dogs and blood samples were collected at various time points. The blood samples were extracted and were analyzed by HPLC to obtain the concentration of compound 9 in the plasma. The plasma levels obtained after intravenous and oral administration were plotted against time, areas under the curves were calculated and percent bioavailability were estimated.

The nature of data set [9]: Oral bioavailability in the dog. It counts as in vivo. Conditions: 10 mg/kg oral (vs 1 mg/kg intravenous), plasma. As for the experimental part: as §3

Usually IC50 stands for the point on the concentration scale where inhibition reaches its midpoint. The molecule `COc1cc(OC)c([C@@H]2CCCC[C@H]2O)c(O)c1C(=O)/C=C/c1ccc(Cl)cc1` (relative stereo) [Compound 4 of Table 1, trans-(±)-2-[4,6-Dimethoxy-2-hydroxy-3-(3-(4-chlorophenyl)prop-2-(E)-enoyl)]phenylcyclohexanol] registered an inhibition at 1.2 µM in data set [1] (Conc. 1.2 × 10^-6 M) of 36.8%. In data set [1] (Conc. 1.68 × 10^-6 M), this molecule returned an inhibition at 1.68 µM of 50.5%. Moreover, the inhibition at 2.4 µM in [1] (Conc. 2.4 × 10^-6 M) is 62.4%. Besides, the inhibition at 7.2 µM in data set [1] (Conc. 7.2 × 10^-6 M) is 68%. Further, the IC50 was 1680 nM in data set [1] (relaxation of leukotriene precontracted ileum, read-out: App. IC50) and 200 to 300 nM in the data set on IL-1 alpha. For the same molecule, in data set [2], the “Effect on histamine induced contraction” value is listed as “No effect”. In addition, the “Effect on KC1 induced contraction” value in data set [3] is on record as “No effect”. Moreover, the “% Inhibition of granuloma, Dry wt.” value came to 35.6% in data set [4] (10 mg/kg), 89.0% in [4] (20 mg/kg) and 82.8% in data set [4] (30 mg/kg). Besides, the “% Inhibition of granuloma, Wet wt.” value in data set [4] (10 mg/kg) is on record as 21%; in data set [4] (20 mg/kg), 54%; in [4] (30 mg/kg), 64%. Moreover, the Recovery period in data set [5] (control group 37 + 3.4) came to 77.6 min. Further, in data set [5] (control group 75 + 8.7), the Onset Time amounted to 149 s.
The bioavailability is the share of a dose that reaches the circulation, judged against a reference dose that is usually intravenous. Higher therefore signals much systemic uptake. In the case of `COc1cc(OC)c([C@@H]2CCCC[C@H]2OC(=O)[C@H](C)N)c(O)c1C(=O)/C=C/c1cccc(Br)c1` [Compound 9 of Table 2, trans-(-)-2-[4,6-dimethoxy-2-hydroxy-3-(3-(3-bromophenyl)prop-2-(E)-enoyl)phenyl]cyclohexyl-2-(S)-amino propanoate hydrochloride], the inhibition at 5 µM in the data set on IL-1 turned out to be 55%. Besides, the “reduction in the uninjected paw volumes” value in [6] was “significant and dose dependent reduction”. Moreover, the “reduction in the mortality rate” value in data set [7] is given as 45%. For the same molecule, in data set [7] (compared to untreated group), the “clinical symptoms (clinical grading)” value is “significantly reduced”. Also, the bioavailability in data set [8] came to 46%; in [9] it was 73%.
